The record followed here is ChEMBL document CHEMBL1201862, “PubChem BioAssay data set” (2004).

Among the test systems are LOX IMVI; HOP-92; MDA-MB-231; HOP-62; HCC 2998; NCI-H226; M14; NCI/ADR-RES; HT-29; SF-295; SK-MEL-28; OVCAR-4; COLO 205; A498; OVCAR-3; DU-145; SNB-75; SR; NCI-H522; K562.
Test in all cases: DTP human tumour cell line panel, 48 h

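Where inhibition never reached the appropriate level, the endpoint shown equals the highest concentration tested. Otherwise, values were interpolated linearly from a five-concentration, 48-hour dose response in 96-well plates. GI50 = concentration required for 50% inhibition of growth.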 The source made the active and inactive calls. Cut-off read from the data, not from the text of the source: active = GI50 up to about 1.1 µM and inactive = higher.

As usually defined, the GI50 is the concentration at which growth is held to half of that of the control. With `CCN(CC)c1ccc(/C=C/C=C2C(=O)NC(=S)NC2=O)cc1`, the GI50 with LOX IMVI was 13.5 µM (inactive); with HOP-92, 77.8 µM (inactive); in the assay with MDA-MB-231 it was 22.9 µM (inactive); in the assay with HOP-62, 15.4 µM (inactive); with HCC 2998, 27.2 µM (inactive); in the assay on NCI-H226 it was 28.6 µM (inactive). Also, the GI50 is 35.4 µM (inactive) in the assay with M14; 10.4 µM (inactive) in the assay on NCI/ADR-RES; > 100 µM (inactive) with HT-29; > 83.6 µM (inactive) in the assay with SF-295; 4.91 µM (inactive) in the assay with SK-MEL-28; > 100 µM (inactive) in the assay on OVCAR-4. The GI50 with COLO 205 was > 100 µM (inactive); in the assay with A498, > 100 µM (inactive); in the assay on OVCAR-3, 16.6 µM (inactive); in the assay on DU-145, 20.9 µM (inactive); with SNB-75, 28.9 µM (inactive); in the assay on SR, 2.53 µM (inactive).
`CC(=O)n1nc(-c2ccccc2)n(/N=C/c2ccc([N+](=O)[O-])o2)c1=O`: the GI50 was 7.74 µM (inactive) with LOX IMVI; 9.86 µM (inactive) with HOP-92; 8.34 µM (inactive) in the assay with MDA-MB-231; 4.94 µM (inactive) in the assay on HOP-62; 4.53 µM (inactive) in the assay on HCC 2998; 1.94 µM (inactive) in the assay with M14. Moreover, the GI50 in the assay with NCI/ADR-RES is 9.73 µM (inactive); in the assay with HT-29, 3.37 µM (inactive); with SF-295, 1.66 µM (inactive); with SK-MEL-28 it was 9.84 µM (inactive); with NCI-H522 it was 3.7 µM (inactive); in the assay with K562, 8.83 µM (inactive). For the same compound, the GI50 was 15.1 µM (inactive) with OVCAR-4; 7.36 µM (inactive) with COLO 205; 2.47 µM (inactive) with A498; 7.91 µM (inactive) in the assay on OVCAR-3; 7.91 µM (inactive) with DU-145; 10.2 µM (inactive) in the assay on SNB-75. For the same compound, the GI50 in the assay on SR is 3.08 µM (inactive).
As to `C/C(=N\N=C1/C(=O)OC(c2ccccc2)=C1C(=O)c1ccccc1)c1ccc([N+](=O)[O-])cc1`, the GI50 in the assay on LOX IMVI was 34.8 µM (inactive); in the assay on HOP-92 it was 20.5 µM (inactive); in the assay on MDA-MB-231, 79.3 µM (inactive); in the assay with HOP-62, > 100 µM (inactive); in the assay with HCC 2998 it was 47.9 µM (inactive); with NCI-H226, 27.8 µM (inactive). The GI50 in the assay on M14 was 65.5 µM (inactive); in the assay with NCI/ADR-RES, 60.7 µM (inactive); in the assay on HT-29, 73.8 µM (inactive); in the assay on SF-295, 45.6 µM (inactive); in the assay with SK-MEL-28, 54.7 µM (inactive); in the assay with NCI-H522 it was 27.7 µM (inactive). In addition, the GI50 in the assay on K562 is 35 µM (inactive); with OVCAR-4 it was 37.4 µM (inactive); in the assay with COLO 205, 52.2 µM (inactive); with A498, > 100 µM (inactive); in the assay on OVCAR-3 it was 33.7 µM (inactive); with DU-145, 44.4 µM (inactive). In addition, the GI50 in the assay on SR was 6.7 µM (inactive).
Consider `COC(=O)c1c(OC(C)=O)ccc2c1c1c(n2Cc2ccccc2)C(=O)c2ccccc2C1=O`, for which the GI50 was 21.4 µM (inactive) in the assay with HOP-92; 17.1 µM (inactive) in the assay with MDA-MB-231; 24.1 µM (inactive) in the assay on HOP-62; 16.2 µM (inactive) with HCC 2998; 23 µM (inactive) with NCI-H226; 22 µM (inactive) in the assay on M14. Also, the GI50 in the assay with NCI/ADR-RES is 24 µM (inactive); in the assay on HT-29, 16.9 µM (inactive); with SF-295, 17.5 µM (inactive); in the assay with SK-MEL-28, 21.4 µM (inactive); in the assay with NCI-H522, 19.5 µM (inactive); in the assay with K562 it was 25.7 µM (inactive). Besides, the GI50 is 21.8 µM (inactive) in the assay on OVCAR-4; 16.9 µM (inactive) with COLO 205; 19.4 µM (inactive) in the assay on A498; 17.6 µM (inactive) in the assay on OVCAR-3; 17 µM (inactive) in the assay with DU-145; 22.2 µM (inactive) in the assay with SNB-75. Besides, the GI50 in the assay with SR is 24.9 µM (inactive).
As to `COc1ccc2[nH]c3ccc4cc[n+](CCN5CCC(C6CCN(CC[n+]7ccc8ccc9[nH]c%10ccc(OC)cc%10c9c8c7)CC6)CC5)cc4c3c2c1`, the GI50 with HOP-92 is 0.303 µM (active); with MDA-MB-231, 8.04 µM (inactive); in the assay with HOP-62, > 40.6 µM (inactive); with NCI-H226, 29.4 µM (inactive); with M14, > 50 µM (inactive); with NCI/ADR-RES it was 19.5 µM (inactive). In addition, the GI50 in the assay on HT-29 is 0.333 µM (active); in the assay on SF-295, 1.64 µM (inactive); with SK-MEL-28 it was 1.88 µM (inactive); with NCI-H522, 0.875 µM (active); in the assay with K562 it was 0.228 µM (active); in the assay on OVCAR-4, 7.29 µM (inactive). Further, the GI50 with A498 was > 16.2 µM (inactive); with OVCAR-3, > 62.1 µM (inactive); in the assay on DU-145 it was 21.4 µM (inactive); in the assay with SNB-75, 14.2 µM (inactive); in the assay with SR, 0.117 µM (active).
Consider `CCCCN1/C(=N/Nc2n[nH]c(=O)c3ccccc23)SCC1c1ccc(Cl)cc1` (stereo unspecified), for which the GI50 is 57.9 µM (inactive) with HOP-92; 20.6 µM (inactive) in the assay on MDA-MB-231; 6.24 µM (inactive) with HOP-62; 10.4 µM (inactive) in the assay on NCI-H226; 5.55 µM (inactive) in the assay on M14; 8.79 µM (inactive) in the assay on NCI/ADR-RES. The GI50 was 24.2 µM (inactive) with HT-29; 6.53 µM (inactive) in the assay with SF-295; 19.1 µM (inactive) in the assay on SK-MEL-28; 11.8 µM (inactive) in the assay with NCI-H522; 8.17 µM (inactive) with K562; 53.3 µM (inactive) in the assay with OVCAR-4. Further, the GI50 in the assay on COLO 205 was 11.8 µM (inactive); in the assay with A498, 3.47 µM (inactive); in the assay on OVCAR-3, 15 µM (inactive); in the assay with DU-145 it was 22.2 µM (inactive); in the assay with SNB-75 it was 18.6 µM (inactive); in the assay on SR, 4.73 µM (inactive).
Regarding `O=C(CC(c1ccccc1)C(C(=O)c1ccncc1)C(CC(=O)c1ccncc1)c1ccccc1)c1ccncc1` (stereo unspecified), the GI50 in the assay with LOX IMVI is > 100 µM (inactive); in the assay with HOP-92 it was 48.3 µM (inactive); in the assay on MDA-MB-231, 31.6 µM (inactive); with HOP-62, 44.5 µM (inactive); in the assay with HCC 2998, > 100 µM (inactive); in the assay on NCI-H226, 38.5 µM (inactive). In addition, the GI50 in the assay with M14 was > 100 µM (inactive); with NCI/ADR-RES, 49.3 µM (inactive); with HT-29 it was > 100 µM (inactive); in the assay on SF-295, 29.8 µM (inactive); in the assay on SK-MEL-28, > 100 µM (inactive); in the assay with OVCAR-4, > 10 µM (inactive). For the same compound, the GI50 is > 100 µM (inactive) with COLO 205; 71.8 µM (inactive) in the assay with A498; 75.9 µM (inactive) in the assay with OVCAR-3; 96.6 µM (inactive) with DU-145; 23.7 µM (inactive) with SNB-75; > 100 µM (inactive) in the assay on SR.
Turning to `COc1ccc2c(c1)CCc1cc(OC)ccc1/[N+]([O-])=[N+]\2[O-]`, the GI50 was 15 µM (inactive) in the assay on LOX IMVI; 13.2 µM (inactive) in the assay on HOP-92; 18.7 µM (inactive) in the assay with MDA-MB-231; 21.6 µM (inactive) in the assay on HOP-62; 30.1 µM (inactive) in the assay on HCC 2998; 23 µM (inactive) in the assay with M14. Moreover, the GI50 with NCI/ADR-RES was 24.9 µM (inactive); with HT-29, 19.6 µM (inactive); with SF-295 it was 19.9 µM (inactive); in the assay on SK-MEL-28, 18.7 µM (inactive); with NCI-H522, 5.93 µM (inactive); in the assay with K562, 8.91 µM (inactive). The GI50 in the assay with COLO 205 is 14.5 µM (inactive); with A498, 16.2 µM (inactive); in the assay with OVCAR-3, 16.6 µM (inactive); in the assay on DU-145, 18.1 µM (inactive); in the assay with SNB-75, 17.9 µM (inactive); with SR, 3.28 µM (inactive).
